Experimental data from ChEMBL document CHEMBL1201862, “PubChem BioAssay data set” (2004).
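Interpolation was linear, between the two tested concentrations surrounding the appropriate level; five concentrations were tested over 48 hours in 96-well plates. The concentration for 50% growth inhibition is given as GI50.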 Activity calls are given as the source filed them. Rule as the data show it: active = GI50 up to about 1.1 µM and inactive = higher.

What was measured:
Test in all cases: NCI-60 cell line screen, 48 h
786-0 = test system: 786-0
A549 = test system: A549
ACHN = test system: ACHN
CAKI-1 = test system: CAKI-1
CCRF-CEM = test system: CCRF-CEM
COLO 205 = test system: COLO 205
DLD-1 = test system: DLD-1
DMS-114 = test system: DMS-114
DMS-273 = test system: DMS-273
EKVX = test system: EKVX
HCC 2998 = test system: HCC 2998
HCT-116 = test system: HCT-116
HL-60 = test system: HL-60
HOP-18 = test system: HOP-18
HOP-62 = test system: HOP-62
HOP-92 = test system: HOP-92
HT-29 = test system: HT-29
IGROV-1 = test system: IGROV-1
K562 = test system: K562
KM-20L2 = test system: KM-20L2
KM12 = test system: KM12
LOX IMVI = test system: LOX IMVI
LXFL 529 = test system: LXFL 529
M14 = test system: M14
M19-MEL = test system: M19-MEL
MOLT-4 = test system: MOLT-4
Malme-3M = test system: Malme-3M
NCI-H226 = test system: NCI-H226
NCI-H23 = test system: NCI-H23
NCI-H460 = test system: NCI-H460
NCI-H522 = test system: NCI-H522
OVCAR-3 = test system: OVCAR-3
OVCAR-4 = test system: OVCAR-4
OVCAR-5 = test system: OVCAR-5
OVCAR-8 = test system: OVCAR-8
RPMI-8226 = test system: RPMI-8226
RXF 393 = test system: RXF 393
RXF 631 = test system: RXF 631
SF-268 = test system: SF-268
SF-295 = test system: SF-295
SF-539 = test system: SF-539
SK-MEL-28 = test system: SK-MEL-28
SK-MEL-2 = test system: SK-MEL-2
SK-MEL-5 = test system: SK-MEL-5
SK-OV-3 = test system: SK-OV-3
SN12C = test system: SN12C
SNB-19 = test system: SNB-19
SNB-75 = test system: SNB-75
SNB-78 = test system: SNB-78
SR = test system: SR
SW-620 = test system: SW-620
TK-10 = test system: TK-10
U-251 = test system: U-251
UACC-257 = test system: UACC-257
UACC-62 = test system: UACC-62
UO-31 = test system: UO-31
XF498 = test system: XF498
A498 = test system: A498
HCT-15 = test system: HCT-15

## CCOC(=O)C1=C(C)N(c2ccccc2)C2=C(C(=O)N(c3ccccc3)C2c2ccccc2)C1c1ccccc1 (configuration not stated)
786-0
  GI50: > 100 µM (inactive)
A549
  GI50: > 100 µM (inactive)
ACHN
  GI50: > 100 µM (inactive)
CAKI-1
  GI50: > 100 µM (inactive)
CCRF-CEM
  GI50: > 100 µM (inactive)
COLO 205
  GI50: > 100 µM (inactive)
DLD-1
  GI50: > 100 µM (inactive)
DMS-114
  GI50: > 100 µM (inactive)
DMS-273
  GI50: > 100 µM (inactive)
EKVX
  GI50: > 100 µM (inactive)
HCC 2998
  GI50: > 100 µM (inactive)
HCT-116
  GI50: > 100 µM (inactive)
HL-60
  GI50: > 100 µM (inactive)
HOP-18
  GI50: > 100 µM (inactive)
HOP-62
  GI50: > 100 µM (inactive)
HOP-92
  GI50: > 100 µM (inactive)
HT-29
  GI50: > 100 µM (inactive)
IGROV-1
  GI50: > 100 µM (inactive)
K562
  GI50: > 100 µM (inactive)
KM-20L2
  GI50: > 100 µM (inactive)
KM12
  GI50: > 100 µM (inactive)
LOX IMVI
  GI50: > 100 µM (inactive)
LXFL 529
  GI50: > 100 µM (inactive)
M14
  GI50: > 100 µM (inactive)
M19-MEL
  GI50: > 100 µM (inactive)
MOLT-4
  GI50: > 100 µM (inactive)
Malme-3M
  GI50: > 100 µM (inactive)
NCI-H226
  GI50: > 100 µM (inactive)
NCI-H23
  GI50: > 100 µM (inactive)
NCI-H460
  GI50: > 100 µM (inactive)
NCI-H522
  GI50: > 100 µM (inactive)
OVCAR-3
  GI50: > 100 µM (inactive)
OVCAR-4
  GI50: > 100 µM (inactive)
OVCAR-5
  GI50: > 100 µM (inactive)
OVCAR-8
  GI50: > 100 µM (inactive)
RPMI-8226
  GI50: > 100 µM (inactive)
RXF 393
  GI50: > 100 µM (inactive)
RXF 631
  GI50: > 100 µM (inactive)
SF-268
  GI50: > 100 µM (inactive)
SF-295
  GI50: > 100 µM (inactive)
SF-539
  GI50: > 100 µM (inactive)
SK-MEL-28
  GI50: > 100 µM (inactive)
SK-MEL-2
  GI50: > 100 µM (inactive)
SK-MEL-5
  GI50: > 100 µM (inactive)
SK-OV-3
  GI50: > 100 µM (inactive)
SN12C
  GI50: > 100 µM (inactive)
SNB-19
  GI50: > 100 µM (inactive)
SNB-75
  GI50: > 100 µM (inactive)
SNB-78
  GI50: > 100 µM (inactive)
SR
  GI50: > 100 µM (inactive)
SW-620
  GI50: > 100 µM (inactive)
TK-10
  GI50: > 100 µM (inactive)
U-251
  GI50: > 100 µM (inactive)
UACC-257
  GI50: > 100 µM (inactive)
UACC-62
  GI50: > 100 µM (inactive)
UO-31
  GI50: > 100 µM (inactive)
XF498
  GI50: > 100 µM (inactive)

## CSc1nc2c(c(O)c(C)c(=O)n2C2OC(COC(C)=O)C(OC(C)=O)C(OC(C)=O)C2OC(C)=O)c(=O)n1C (configuration not stated)
786-0
  GI50: > 100 µM (inactive)
A498
  GI50: > 100 µM (inactive)
A549
  GI50: > 100 µM (inactive)
ACHN
  GI50: > 100 µM (inactive)
CAKI-1
  GI50: > 100 µM (inactive)
CCRF-CEM
  GI50: > 100 µM (inactive)
COLO 205
  GI50: > 100 µM (inactive)
DLD-1
  GI50: > 100 µM (inactive)
DMS-114
  GI50: > 100 µM (inactive)
DMS-273
  GI50: > 100 µM (inactive)
EKVX
  GI50: > 100 µM (inactive)
HCC 2998
  GI50: > 100 µM (inactive)
HCT-116
  GI50: > 100 µM (inactive)
HCT-15
  GI50: > 100 µM
HL-60
  GI50: > 100 µM (inactive)
HOP-18
  GI50: > 100 µM (inactive)
HOP-62
  GI50: > 100 µM (inactive)
HOP-92
  GI50: > 100 µM (inactive)
HT-29
  GI50: > 100 µM (inactive)
IGROV-1
  GI50: > 100 µM (inactive)
K562
  GI50: > 100 µM (inactive)
KM-20L2
  GI50: > 100 µM (inactive)
KM12
  GI50: > 100 µM (inactive)
LOX IMVI
  GI50: > 100 µM (inactive)
LXFL 529
  GI50: > 100 µM (inactive)
M14
  GI50: > 100 µM (inactive)
Malme-3M
  GI50: > 100 µM (inactive)
NCI-H226
  GI50: > 100 µM (inactive)
NCI-H23
  GI50: > 100 µM (inactive)
NCI-H460
  GI50: > 100 µM (inactive)
NCI-H522
  GI50: > 100 µM (inactive)
OVCAR-3
  GI50: > 100 µM (inactive)
OVCAR-4
  GI50: > 100 µM (inactive)
OVCAR-5
  GI50: > 100 µM (inactive)
OVCAR-8
  GI50: > 100 µM (inactive)
RPMI-8226
  GI50: < 0.01 µM (active)
RXF 393
  GI50: > 100 µM (inactive)
RXF 631
  GI50: > 100 µM (inactive)
SF-268
  GI50: > 100 µM (inactive)
SF-295
  GI50: > 100 µM (inactive)
SF-539
  GI50: > 100 µM (inactive)
SK-MEL-28
  GI50: > 100 µM (inactive)
SK-MEL-2
  GI50: > 100 µM (inactive)
SK-MEL-5
  GI50: > 100 µM (inactive)
SK-OV-3
  GI50: > 100 µM (inactive)
SN12C
  GI50: > 100 µM (inactive)
SNB-19
  GI50: > 100 µM (inactive)
SNB-75
  GI50: > 100 µM (inactive)
SNB-78
  GI50: > 100 µM (inactive)
SW-620
  GI50: > 100 µM (inactive)
TK-10
  GI50: > 100 µM (inactive)
U-251
  GI50: > 100 µM (inactive)
UACC-257
  GI50: > 100 µM (inactive)
UACC-62
  GI50: > 100 µM (inactive)
UO-31
  GI50: > 77.4 µM (inactive)
XF498
  GI50: > 100 µM (inactive)

## O=C(/C=C/c1ccccc1O)c1cccc2ccccc12
786-0
  GI50: 58.7 µM (inactive)
A498
  GI50: > 100 µM (inactive)
A549
  GI50: > 80.2 µM (inactive)
ACHN
  GI50: > 100 µM (inactive)
CAKI-1
  GI50: > 92.9 µM (inactive)
CCRF-CEM
  GI50: 18.2 µM (inactive)
COLO 205
  GI50: > 44.8 µM (inactive)
DLD-1
  GI50: 37.3 µM (inactive)
DMS-114
  GI50: 21.4 µM (inactive)
DMS-273
  GI50: 54.5 µM (inactive)
EKVX
  GI50: > 87.9 µM (inactive)
HCC 2998
  GI50: > 74.1 µM (inactive)
HCT-116
  GI50: 27.6 µM (inactive)
HCT-15
  GI50: 23.7 µM
HL-60
  GI50: 27.9 µM (inactive)
HOP-18
  GI50: 28.1 µM (inactive)
HOP-62
  GI50: > 81.7 µM (inactive)
HOP-92
  GI50: > 52.2 µM (inactive)
HT-29
  GI50: > 66.5 µM (inactive)
IGROV-1
  GI50: > 51.4 µM (inactive)
K562
  GI50: 32 µM (inactive)
KM-20L2
  GI50: > 100 µM (inactive)
KM12
  GI50: 40.3 µM (inactive)
LOX IMVI
  GI50: > 53.5 µM (inactive)
LXFL 529
  GI50: 36.2 µM (inactive)
M14
  GI50: > 100 µM (inactive)
M19-MEL
  GI50: > 100 µM (inactive)
MOLT-4
  GI50: 21.1 µM (inactive)
Malme-3M
  GI50: > 100 µM (inactive)
NCI-H226
  GI50: > 46.3 µM (inactive)
NCI-H23
  GI50: 60.7 µM (inactive)
NCI-H460
  GI50: > 84.1 µM (inactive)
NCI-H522
  GI50: 51.9 µM (inactive)
OVCAR-3
  GI50: 30.2 µM (inactive)
OVCAR-4
  GI50: 56.8 µM (inactive)
OVCAR-5
  GI50: > 100 µM (inactive)
OVCAR-8
  GI50: > 71 µM (inactive)
RPMI-8226
  GI50: 20.3 µM (inactive)
RXF 393
  GI50: 43.2 µM (inactive)
RXF 631
  GI50: > 100 µM (inactive)
SF-268
  GI50: 48.8 µM (inactive)
SF-295
  GI50: > 100 µM (inactive)
SF-539
  GI50: 76.4 µM (inactive)
SK-MEL-28
  GI50: > 100 µM (inactive)
SK-MEL-2
  GI50: > 100 µM (inactive)
SK-MEL-5
  GI50: > 100 µM (inactive)
SK-OV-3
  GI50: > 100 µM (inactive)
SN12C
  GI50: 44.4 µM (inactive)
SNB-19
  GI50: 69.2 µM (inactive)
SNB-75
  GI50: 48.8 µM (inactive)
SNB-78
  GI50: > 100 µM (inactive)
SR
  GI50: 31.3 µM (inactive)
SW-620
  GI50: > 28.1 µM (inactive)
TK-10
  GI50: > 100 µM (inactive)
U-251
  GI50: 42.3 µM (inactive)
UACC-257
  GI50: > 69.5 µM (inactive)
UACC-62
  GI50: > 100 µM (inactive)
UO-31
  GI50: > 47.4 µM (inactive)
XF498
  GI50: 25.8 µM (inactive)
